One data set deals with HCT116. Description: Cell viability assay on HCT116. The data set is classed as cell-based, human. Conditions: for HCT116 Cell Viability: remaining viability; for viability at 20 µM: Homo sapiens.
A further data set deals with AsPC-1. In words: Cell viability assay (MTT) on AsPC-1. To be noted: for inhibition of cell viability, significance: 20 μM, AsPC-1, p-value <0.05; for AsPC-1 Cell Viability: remaining viability, 20 μM drug, normalized by blank control, three repeats; for viability at 20 µM: Homo sapiens, ASPC1, read-out: AsPC-1 Cell Viability, remaining viability, 20 μM drug, normalized by blank control, three repeats.

The next data set deals with shCtrl/HCT116. In words: Cell viability assay on shCtrl/HCT116 (control strain). Conditions: for shCtrl/HCT116 Cell Viability: remaining viability; for viability at 20 µM: Homo sapiens. Format: cell-based, human.
The next data set concerns shATG4B/HCT116. In words: Cell viability assay on shATG4B/HCT116 (ATG4B silencing strain). The data set is classed as cell-based, human. To be noted: for difference of cell viability inhibition between shATG4B/HCT116 (S strain) and shCtrl/HCT116 (C strain): Student's t-test, p-value <0.05; for shATG4B/HCT116 Cell Viability: remaining viability; for viability at 20 µM: Homo sapiens.

Setting [1] is: 20 μM drug, normalized by blank control, three repeats.
Where [2] appears, read: HCT-116, remaining viability, 20 μM drug, normalized by blank control, three repeats, read-out: HCT116 Cell Viability.
The mark [3] stands for this setting: HCT-116, remaining viability, 20 μM drug, C strain, read-out: shCtrl/HCT116 Cell Viability.
Setting [4] is: HCT-116, remaining viability, 20 μM drug, S strain, read-out: shATG4B/HCT116 Cell Viability.

“Also recorded” adds a separate entry of the source. Like-named read-outs stand apart in the source and are kept apart here.

Protocol for AsPC-1: The cell viability was measured using the MTT assay or CellTiter-Glo Luminescent Cell Viability Assay. For MTT assay, mouse AK4.4 (1,000 cells/well) and human AsPC-1 (1,500 cells/well) cells were seeded in 96-well plates and cultured in serum-free medium (SFM) containing indicated concentrations of drugs for 48 hours. To measure the cell viability, 15 μL MTT (3-(4,5-dimethylthiazol-2-yl)-2,5-diphenyltetrazolium bromide, 5 mg/mL in PBS) was added in each well and kept at 37° C. for three hours. The precipitated crystals were then dissolved in 50 μL DMSO, and the absorbance at 570 nm was measured by Multiskan GO Microplate Spectrophotometer (Thermo Scientific, USA) to estimate the cell survival rate. To quantify the drug combination effect, the combination index was calculated when the cell viability was reduced by 50% using the following Equation (1):

For `CC[C@@]1(O)C[C@H](O[C@H]2C[C@H](N(C)C)[C@H](O[C@H]3C[C@H](O)[C@H](O[C@H]4CCC(=O)[C@H](C)O4)[C@H](C)O3)[C@H](C)O2)c2c(cc3c(c2O)C(=O)c2c(O)cccc2C3=O)[C@H]1C(=O)OC` [Aclacinomycin A], the “HCT116 Cell Viability” value with HCT116 (setting [1]) is 27.9 ± 1.3%; in the data set on HCT116 (20 μM drug, normalized by blank control, three repeats, listed as aclacinomycin A) it was 28%. For the same compound, the “inhibition of cell viability, significance” value (“inhibition … significance” for short) in the data set with AsPC-1 is on record as “statistically significant”. The “AsPC-1 Cell Viability” value is on record as 48.3 ± 4.6% with AsPC-1 and 48% with AsPC-1 (listed as aclacinomycin A). Further, the “shCtrl/HCT116 Cell Viability” value amounted to 27.7 ± 1.2% in the data set with shCtrl/HCT116 (20 μM drug, C strain) and 28% with shCtrl/HCT116 (20 μM drug, C strain, listed as aclacinomycin A). Besides, the “difference of cell viability inhibition between shATG4B/HCT116 (S strain) and shCtrl/HCT116 (C strain)” value in the data set on shATG4B/HCT116 is given as “statistically significant; also recorded: significant differences”. The “shATG4B/HCT116 Cell Viability” value is recorded as 38.4 ± 1.3% in the data set with shATG4B/HCT116 (20 μM drug, S strain) and 38% with shATG4B/HCT116 (20 μM drug, S strain, listed as aclacinomycin A).

As for `O=C(c1c2ccccc2cc2ccccc12)N1CCC(N2CCC[C@@H](C(=O)N3CCOCC3)C2)CC1` [CP-640186], the “HCT116 Cell Viability” value in the data set with HCT116 (setting [1]) came to 84.3 ± 2.0%. Further, the “AsPC-1 Cell Viability” value with AsPC-1 was determined as 87.4 ± 4.7%.

Take `Cc1nc2c([nH]1)-c1ccccc1N(C(=O)c1ccc(NC(=O)c3ccccc3-c3ccccc3)cc1)CC2` [Conivaptan]: the viability at 20 µM with HCT116 (setting [2]) amounted to 67.8 ± 0.5%; with AsPC-1 it was 99.3 ± 2.8%; with shCtrl/HCT116 (setting [3]), 69.5 ± 2.2%; in the data set on shATG4B/HCT116 (setting [4]) it was 84 ± 2%.

Turning to `COC(=O)N[C@H](C(=O)N1CCC[C@H]1c1nc(-c2ccc(-c3ccc(-c4c[nH]c([C@@H]5CCCN5C(=O)[C@@H](NC(=O)OC)C(C)C)n4)cc3)cc2)c[nH]1)C(C)C` [Daclatasvir], the viability at 20 µM in the data set with HCT116 (setting [2]) was found to be 62.7 ± 0.3%; in the data set with AsPC-1 it was 71.1 ± 4.2%; in the data set with shCtrl/HCT116 (setting [3]) it was 58.8 ± 2.6%; in the data set with shATG4B/HCT116 (setting [4]), 69.4 ± 3.7%.

For the compound `CC(C)[C@@]1(NC(=O)[C@@H]2C[C@@H]3c4cccc5[nH]cc(c45)C[C@H]3N(C)C2)O[C@@]2(O)[C@@H]3CCCN3C(=O)[C@H](Cc3ccccc3)N2C1=O` [Dihydroergocristine], the viability at 20 µM in the data set with HCT116 (setting [2]) was 64 ± 3.7%. Further, in the data set with AsPC-1, the “inhibition … significance” value was “statistically significant” and the viability at 20 µM was 77.1 ± 1.6%.

As for `C[C@@H]1CCO[C@H]2Cn3cc(C(=O)NCc4ccc(F)cc4F)c(=O)c(O)c3C(=O)N12` [Dolutegravir], the viability at 20 µM in the data set with HCT116 (setting [2]) amounted to 88 ± 4%; in the data set with AsPC-1 it was 106 ± 5.3%; with shCtrl/HCT116 (setting [3]), 85.5 ± 2.9%; in the data set on shATG4B/HCT116 (setting [4]) it was 89.4 ± 2.5%. In addition, in the data set on shATG4B/HCT116, the “difference of cell viability inhibition between shATG4B/HCT116 (S strain) and shCtrl/HCT116 (C strain)” value is given as “statistically significant; also recorded: significant differences”.

Turning to `C#C[C@]1(O)CC[C@H]2[C@@H]3CCc4cc(O)ccc4[C@H]3CC[C@@]21C` [Ethynyl Estradiol], the viability at 20 µM in the data set with HCT116 (setting [2]) is 47%; in the data set on AsPC-1, 80.1 ± 6.4%; in the data set with shCtrl/HCT116 (setting [3]), 49%; with shATG4B/HCT116 (setting [4]) it was 70%. Further, the “HCT116 Cell Viability” value in the data set on HCT116 (setting [1]) is 47.4 ± 1.8%. Further, the “inhibition … significance” value in the data set on AsPC-1 is reported as “statistically significant”. Also, in the data set on shCtrl/HCT116 (20 μM drug, C strain), the “shCtrl/HCT116 Cell Viability” value stood at 48.7 ± 1.4%. Moreover, the “difference of cell viability inhibition between shATG4B/HCT116 (S strain) and shCtrl/HCT116 (C strain)” value in the data set on shATG4B/HCT116 is “statistically significant; also recorded: significant differences”. The “shATG4B/HCT116 Cell Viability” value in the data set with shATG4B/HCT116 (20 μM drug, S strain) turned out to be 69.5 ± 3.3%.

For the compound `Cc1cc(-c2ccc(/N=N/c3ccc4c(S(=O)(=O)O)cc(S(=O)(=O)O)c(N)c4c3O)c(C)c2)ccc1/N=N/c1ccc2c(S(=O)(=O)O)cc(S(=O)(=O)O)c(N)c2c1O` [Evans Blue], the viability at 20 µM in the data set with HCT116 (setting [2]) amounted to 35%; in the data set on AsPC-1, 34%; in the data set on shCtrl/HCT116 (setting [3]), 35%; in the data set on shATG4B/HCT116 (setting [4]), 34%. Further, in the data set with HCT116 (setting [1]), the “HCT116 Cell Viability” value is listed as 34.8 ± 1.3%. Further, the “inhibition … significance” value with AsPC-1 is on record as “statistically significant”. Besides, the “AsPC-1 Cell Viability” value in the data set on AsPC-1 is on record as 33.6 ± 1.2%. For the same compound, the “shCtrl/HCT116 Cell Viability” value in the data set with shCtrl/HCT116 (20 μM drug, C strain) stood at 34.9 ± 0.3%. The “shATG4B/HCT116 Cell Viability” value in the data set on shATG4B/HCT116 (20 μM drug, S strain) was determined as 34.5 ± 1.7%.

Regarding `COc1ccc2c(c1)C(=O)N(CCc1ccc(S(=O)(=O)NC(=O)NC3CCCCC3)cc1)C(=O)C2(C)C` [Gliquidone], the viability at 20 µM in the data set with HCT116 (setting [2]) was found to be 87 ± 1.6%; in the data set on AsPC-1, 92.4 ± 5.3%; in the data set on shCtrl/HCT116 (setting [3]), 88.4 ± 7.3%; in the data set with shATG4B/HCT116 (setting [4]), 89.6 ± 0.6%.

Turning to `CCC(C)n1ncn(-c2ccc(N3CCN(c4ccc(OCC5COC(Cn6cncn6)(c6ccc(Cl)cc6Cl)O5)cc4)CC3)cc2)c1=O` (stereo not drawn) [Itraconazole], the viability at 20 µM with HCT116 (setting [2]) turned out to be 82.6 ± 2.1%; in the data set with AsPC-1, 93.6 ± 6.3%; in the data set with shCtrl/HCT116 (setting [3]), 84.1 ± 1.9%; with shATG4B/HCT116 (setting [4]) it was 91.3 ± 2.3%.

In the case of `COC(=O)N[C@H](C(=O)N1CC2(CC2)C[C@H]1c1nc(-c2ccc3c(c2)C(F)(F)c2cc(-c4ccc5[nH]c([C@@H]6[C@H]7CC[C@H](C7)N6C(=O)[C@@H](NC(=O)OC)C(C)C)nc5c4)ccc2-3)c[nH]1)C(C)C` [Ledipasvir], the viability at 20 µM in the data set with HCT116 (HCT-116, read-out: HCT116 Cell Viability, remaining viability, 20 μM drug, normalized by blank control, three repeats) amounted to 82.9 ± 2.7%; with AsPC-1 it was 95.2 ± 2.9%; in the data set on shCtrl/HCT116 (HCT-116, read-out: shCtrl/HCT116 Cell Viability, remaining viability, 20 μM drug, C strain) it was 72.5 ± 0.8%; in the data set with shATG4B/HCT116 (HCT-116, read-out: shATG4B/HCT116 Cell Viability) it was 90.2 ± 1.8%. Further, the “difference of cell viability inhibition between shATG4B/HCT116 (S strain) and shCtrl/HCT116 (C strain)” value in the data set with shATG4B/HCT116 is reported as “statistically significant; also recorded: significant differences”.

Regarding `Cc1ccccc1-c1cc(N2CCN(C)CC2)ncc1N(C)C(=O)C(C)(C)c1cc(C(F)(F)F)cc(C(F)(F)F)c1` [Netupitant], the viability at 20 µM with HCT116 (setting [2]) was 3%. In the data set with HCT116 (setting [1]), the “HCT116 Cell Viability” value is listed as 2.8 ± 0.4%. Further, in the data set on AsPC-1, the “inhibition … significance” value is recorded as “statistically significant”; the viability at 20 µM is 43%; the “AsPC-1 Cell Viability” value is 42.9 ± 5.1%.

With `Cc1cn(-c2cc(NC(=O)c3ccc(C)c(Nc4nccc(-c5cccnc5)n4)c3)cc(C(F)(F)F)c2)cn1` [Nilotinib], the viability at 20 µM was determined as 61.4 ± 4.4% with HCT116 (setting [2]), 95.2 ± 3.4% in the data set on AsPC-1, 59.6 ± 1.7% with shCtrl/HCT116 (setting [3]) and 68.2 ± 1.1% in the data set with shATG4B/HCT116 (setting [4]).

On to `Cc1cnc(C(=O)N[C@H]2CCCCC/C=C\[C@@H]3C[C@@]3(C(=O)NS(=O)(=O)C3CC3)NC(=O)[C@@H]3C[C@@H](Oc4nc5ccccc5c5ccccc45)CN3C2=O)cn1` [Paritaprevir], for which the viability at 20 µM with HCT116 (setting [2]) is 85.8 ± 3.3%; with AsPC-1, 98.7 ± 3%; with shCtrl/HCT116 (setting [3]) it was 75.4 ± 1.3%; in the data set with shATG4B/HCT116 (setting [4]) it was 88 ± 1.4%. For the same compound, the “difference of cell viability inhibition between shATG4B/HCT116 (S strain) and shCtrl/HCT116 (C strain)” value in the data set on shATG4B/HCT116 is on record as “statistically significant; also recorded: significant differences”.

With `CC(C)(C)NC(=O)[C@@H]1C[C@@H]2CCCC[C@@H]2CN1C[C@@H](O)[C@H](Cc1ccccc1)NC(=O)[C@H](CC(N)=O)NC(=O)c1ccc2ccccc2n1` [Saquinavir], the viability at 20 µM was determined as 67 ± 1.2% in the data set on HCT116 (setting [2]), 84.6 ± 5.5% in the data set on AsPC-1, 63.5 ± 0.8% in the data set with shCtrl/HCT116 (setting [3]) and 65.4 ± 1.2% in the data set on shATG4B/HCT116 (setting [4]).

For `Cc1ccc(C(=O)Nc2ccc(S(=O)(=O)O)c3cc(S(=O)(=O)O)cc(S(=O)(=O)O)c23)cc1NC(=O)c1cccc(NC(=O)Nc2cccc(C(=O)Nc3cc(C(=O)Nc4ccc(S(=O)(=O)O)c5cc(S(=O)(=O)O)cc(S(=O)(=O)O)c45)ccc3C)c2)c1` [Suramin], the viability at 20 µM in the data set with HCT116 (setting [2]) was determined as 100 ± 2.3%; in the data set with AsPC-1, 107 ± 6.5%; with shCtrl/HCT116 (setting [3]), 104 ± 4.4%; in the data set with shATG4B/HCT116 (setting [4]), 98.3 ± 0.7%.

The values are drawn from US20230187019A1, “METHOD FOR DETERMINING A DRUG COMBINATION VIA A BLOCKING MODEL OF A MULTI-SITE-TARGETED PROTEIN AND APPLICATIONS THEREOF” (National Tsing Hua University, priority 2021, published 2023).
